In experiment [1] the test system is SK-MEL-5 (melanoma) cells. The experiment in a line: NCI-60 five dose screen, SK-MEL-5. The settings on record: Homo sapiens, SK-MEL-5, read-out: LC50.
For experiment [2], the system named is SF-295 (CNS cancer) cells. The experiment in a line: NCI-60 five dose screen, SF-295. As to conditions: Homo sapiens, SF-295, read-out: LC50.
Experiment [3] relates to A498 (renal cancer) cells. The experiment in a line: NCI-60 five dose screen, A498. As to conditions: Homo sapiens, A498, read-out: LC50.
Experiment [4] has as its system RXF 393 (renal cancer) cells. The experiment in a line: NCI-60 five dose screen, RXF 393. As to conditions: Homo sapiens, RXF 393, read-out: LC50.
For experiment [5], the system named is MDA-MB-468 (breast cancer) cells. The experiment is described as follows: NCI-60 five dose screen, MDA-MB-468. The settings on record: Homo sapiens, MDA-MB-468, read-out: LC50.
Experiment [6] concerns OVCAR-3 (ovarian cancer) cells. The experiment in a line: NCI-60 five dose screen, OVCAR-3. The settings on record: Homo sapiens, OVCAR-3, read-out: LC50.
The test system of experiment [7] is HCC-2996 (colon cancer) cells. The experiment in a line: NCI-60 five dose screen, HCC-2996. The settings on record: read-out: LC50.
Experiment [8] concerns DU-145 (prostate cancer) cells. The experiment is described as follows: NCI-60 five dose screen, DU-145. The settings on record: Homo sapiens, DU-145, read-out: LC50.
For experiment [9], the system named is MDA-MB-435 (melanoma) cells. The experiment is described as follows: NCI-60 five dose screen, MDA-MB-435. The settings on record: Homo sapiens, MDA-MB-435, read-out: LC50.
Experiment [10] has as its system NCI-H522 (non-small cell lung cancer) cells. The experiment in a line: NCI-60 five dose screen, NCI-H522. The settings on record: Homo sapiens, NCI-H522, read-out: LC50.
For experiment [11], the system named is COLO 205 (colon cancer) cells. The experiment is described as follows: NCI-60 five dose screen, COLO 205. As to conditions: Homo sapiens, COLO 205, read-out: LC50.
Experiment [12] concerns HOP-92 (non-small cell lung cancer) cells. The experiment is described as follows: NCI-60 five dose screen, HOP-92. The settings on record: Homo sapiens, HOP-92, read-out: LC50.

Turning to `COc1cccc2c1C(=O)c1c(O)c3c(c(O)c1C2=O)C[C@@](O)(C(=O)CO)C[C@@H]3O[C@H]1C[C@H](N)[C@H](O)[C@H](C)O1` [Doxorubicin, doxorubicin, reference compound], the CC50 is 1.62 µM in experiment [1]; 19.1 µM in [2]; 3.72 µM in experiment [3]; 4.79 µM in experiment [4]; 2.45 µM in experiment [5]; 23.4 µM in experiment [6]. Also, the CC50 in experiment [7] was found to be 6.76 µM; in experiment [8] it was 23.4 µM; in experiment [9] it was 2.88 µM; in experiment [10], 9.33 µM; in experiment [11] it was 4.9 µM; in [12], 20.9 µM.

The values are drawn from patent US20180353457A1, “ABIETANE DITERPENOID 7-ACETOXYROYLEANONES FOR USE IN CANCER TREATMENT” (University of South Carolina, priority 2017, published 2018).
